Read-outs that look alike come from different tables or passages of the source. *1 amine or outer side, *2 acyl side, *3 side chain or, on linkers, in order; H or OH if unused. Where a SMILES comes first, the peptide text is derived from it. Bridges are numbered along the chain shown (N, C = ends). [ ]: non-standard residue; d: D form. The star is where a group is joined. ξ: configuration not given here. NMePhe(2-(4-MorPh),5-Cl) = CN[C@@H](Cc1cc(Cl)ccc1-c1ccc(N2CCOCC2)cc1)C(=O)O; X160 = CC(=O)N1CC=C(c2ccc(Cl)cc2C[C@@H](C(=O)[*:2])N(C)[*:1])C(C)(C)C1; NMeAla(5-Cl-2-cPrO-3-pyridyl) = CN[C@@H](Cc1cc(Cl)cnc1OC1CC1)C(=O)O; NMe3Pal(2-OiBu,5-Cl) = CN[C@@H](Cc1cc(Cl)cnc1OCC(C)C)C(=O)O; NMehhhLys(Me) = CN([C@@H](CCCCCCCN(C)[*:3])C(=O)[*:2])[*:1]; NMe3Pal(2-OiPr,5-Cl) = CN[C@@H](Cc1cc(Cl)cnc1OC(C)C)C(=O)O; X211 = Cc1ncc(-c2ccc(Cl)cc2C[C@@H](C(=O)[*:2])N(C)[*:1])s1; X22 = CN([C@@H](Cc1cc(Cl)ccc1-c1cnn(C)c1)C(=O)[*:2])[*:1]; NMe(hhhLys) = CN([C@@H](CCCCCCCN[*:3])C(=O)[*:2])[*:1]; X156 = CN([C@@H](Cc1cc(Cl)cc2ccccc12)C(=O)[*:2])[*:1]; X143 = CN([C@@H](Cc1cc(F)cc2cccnc12)C(=O)[*:2])[*:1]; cBuCO(3,3-F2-1-CF3) = O=C(C1(C(F)(F)F)CC(F)(F)C1)*; NMePhe(2,5-Cl2) = CN[C@@H](Cc1cc(Cl)ccc1Cl)C(=O)O; X25 = CCOc1ncc(Cl)cc1C[C@@H](C(=O)[*:2])N(C)[*:1]; X173 = CN([C@@H](Cc1cc(Cl)cs1)C(=O)[*:2])[*:1]; Pro(trans-4-F) = O=C(O)[C@@H]1C[C@@H](F)CN1; Gly(cPr) = N[C@H](C(=O)O)C1CC1; ξGly(cPr) = NC(C(=O)O)C1CC1
What was measured:
[1] = target: T1, CyclinB1/CDK1 (Homo sapiens, UniProt P14635); experiment: Fluorescence Polarization (FP) competitive binding assay, Cyclin B1/Cdk1;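 further: fluorescence polarization read after equilibration at room temperature, with IC50 taken from serially diluted dose-response curves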
T1 construct: purchased Eurofins, discovery 14-450

[2] = target: T2, CyclinE1/CDK2 (Homo sapiens, UniProt P24864); experiment: Fluorescence Polarization (FP) competitive binding assay, Cyclin E1/Cdk2;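 further: readings taken after two-hour equilibration at room temperature in HEPES buffer with NaCl, DTT, NP-40 and BSA, IC50 fitted from eight-concentration serial dilution series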
T2 construct: purchased Eurofins, discovery 14-475

[3] = system: WI-38 cells; experiment: MTT proliferation assay, WI-38; format: cell-based; settings: 3 days compound exposure, 1:3 serial dilution starting at 10 μM;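 further: Eight- or ten-point dilution series, with exposure length chosen to span about three to four cell doublings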
[4] = system: NCI-H1048 cells; experiment: MTT proliferation assay, NCI-H1048; format: cell-based; settings: 5 days compound exposure, 1:3 serial dilution starting at 10 μM;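 further: Dose-response in 96-well plates over 8 or 10 concentration points, with exposure spanning 3-4 cell doublings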
[5] = system: OVCAR3 cells; experiment: MTT proliferation assay, OVCAR3; format: cell-based; settings: 5 days compound exposure, 1:3 serial dilution starting at 10 μM;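 further: compound given as an 8- or 10-point series, one day after plating, with exposure covering roughly 3-4 cell doublings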
[6] = target: T3, CyclinA2/CDK2 (Homo sapiens, UniProt P20248); experiment: Fluorescence Polarization (FP) competitive binding assay, Cyclin A2/Cdk2; settings: 8 nM Cyclin A2/Cdk2, 2 nM FAM probe; average of 2-3 independent experiments; read-out: Cyclin A FP IC50;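 further: plates equilibrated two hours at room temperature before polarization reading, IC50 fitted from eight-concentration compound titration curves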
T3 construct: purchased CRELUX Protein Services

[7] = 10 nM Cyclin B1/Cdk1, 2 nM FAM probe; average of 2-3 independent experiments; read-out: Cyclin B FP IC50
[8] = 10 nM Cyclin E1/Cdk2, 2 nM FAM probe, average of 2-3 independent experiments, read-out: Cyclin E FP IC50
[9] = read-out: Cyclin B FP IC50; 10 nM Cyclin B1/Cdk1, 2 nM FAM probe; average of 2-3 independent experiments

## CC(C)C[C@@H]1NC(=O)[C@@H](N(C)C(=O)[C@@H](NC(=O)[C@@H]2C[C@@H](F)CN2C(=O)C2(C(F)(F)F)CC(F)(F)C2)C2CC2)CC=CCCCCNC(=O)[C@H](Cc2cc(Cl)ccc2Cl)N(C)C1=O (single isomer, unassigned) [Example 6-P1]
[1]; [7]
  IC50: 20 nM
[2]; [8]
  IC50: 500 nM
[3]
  GI50: 16400 nM
[4]
  GI50: 50 nM
[5]
  GI50: 90 nM

## CC(C)C[C@@H]1NC(=O)[C@@H](N(C)C(=O)[C@@H](NC(=O)[C@@H]2C[C@@H](F)CN2C(=O)C2(C(F)(F)F)CC(F)(F)C2)C2CC2)CC=CCCCCNC(=O)[C@H](Cc2cc(Cl)ccc2Cl)N(C)C1=O (single isomer, unassigned) [Example 6-P2]
[1]; [7]
  IC50: 20 nM
[2]; [8]
  IC50: 240 nM
[3]
  GI50: 15600 nM
[4]
  GI50: 40 nM
[5]
  GI50: 70 nM

## CC(C)C[C@@H]1NC(=O)[C@@H](N(C)C(=O)[C@@H](NC(=O)[C@@H]2C[C@@H](F)CN2C(=O)C2(C(F)(F)F)CC(F)(F)C2)C2CC2)CC=CCCCCNC(=O)[C@H](Cc2cc(Cl)ccc2C2=CCN(C)CC2)N(C)C1=O (single isomer, unassigned) [Example 56-P1]
[6]
  IC50: 860 nM
[1]; [7]
  IC50: 40 nM
[3]
  GI50: 5760 nM
[4]
  GI50: 470 nM
[5]
  GI50: 1020 nM

## CC(C)C[C@@H]1NC(=O)[C@@H](N(C)C(=O)[C@@H](NC(=O)[C@@H]2C[C@@H](F)CN2C(=O)C2(C(F)(F)F)CC(F)(F)C2)C2CC2)CC=CCCCCNC(=O)[C@H](Cc2cc(Cl)ccc2C2=CCN(C)CC2)N(C)C1=O (single isomer, unassigned) [Example 56-P2]
[6]
  IC50: 590 nM
[1]; [7]
  IC50: 30 nM
[3]
  GI50: 3760 nM
[4]
  GI50: 190 nM
[5]
  GI50: 430 nM

## CC(C)C[C@@H]1NC(=O)[C@@H](N(C)C(=O)[C@@H](NC(=O)[C@@H]2C[C@@H](F)CN2C(=O)C2(C(F)(F)F)CC3(CCC3)C2)C2CC2)CC=CCCCCN(C)C(=O)[C@H](Cc2cc(Cl)ccc2Cl)N(C)C1=O [Example 15]
[1]; [7]
  IC50: 20 nM
[2]; [8]
  IC50: 1040 nM
[3]
  GI50: 7850 nM
[4]
  GI50: 180 nM
[5]
  GI50: 550 nM

## CC(C)C[C@@H]1NC(=O)[C@@H](N(C)C(=O)[C@@H](NC(=O)[C@@H]2C[C@@H](F)CN2C(=O)C2(C(F)(F)F)CC(F)(F)C2)C2CC2)CCCCCCCN(C)C(=O)[C@H](Cc2cc(Cl)ccc2Cl)N(C)C1=O [Example 25] ({cBuCO(3,3-F2-1-CF3)}-[Pro(trans-4-F)][Gly(cPr)][NMehhhLys(Me)]L[NMePhe(2,5-Cl2)]; lactam 3-C)
[1]; [7]
  IC50: 20 nM
[2]; [8]
  IC50: 230 nM
[3]
  GI50: 8070 nM
[4]
  GI50: 30 nM
[5]
  GI50: 40 nM

## CC(C)C[C@@H]1NC(=O)[C@@H](N(C)C(=O)[C@@H](NC(=O)[C@@H]2C[C@@H](F)CN2C(=O)C2(C(F)(F)F)CC(F)(F)C2)C2CC2)CCCCCCCNC(=O)[C@H](Cc2cc(Cl)ccc2-c2cnn(C)c2)N(C)C1=O [Example 66] ({cBuCO(3,3-F2-1-CF3)}-[Pro(trans-4-F)][Gly(cPr)][NMe(hhhLys)]L[X22]; lactam 3-C)
[3]
  GI50: 12900 nM
[4]
  GI50: 10 nM
[5]
  GI50: 10 nM

## Cc1ncc(-c2ccc(Cl)cc2C[C@H]2C(=O)N(C)CCCCCCC[C@H](N(C)C(=O)[C@@H](NC(=O)[C@@H]3C[C@@H](F)CN3C(=O)C3(C(F)(F)F)CC(F)(F)C3)C3CC3)C(=O)N[C@@H](CC(C)C)C(=O)N2C)s1 [Example 75] ({cBuCO(3,3-F2-1-CF3)}-[Pro(trans-4-F)][Gly(cPr)][NMehhhLys(Me)]L[X211]; lactam 3-C)
[1]; [7]
  IC50: 20 nM
[2]; [8]
  IC50: 440 nM
[3]
  GI50: 5890 nM
[4]
  GI50: 10 nM
[5]
  GI50: 20 nM

## CC(C)C[C@@H]1NC(=O)[C@@H](N(C)C(=O)[C@@H](NC(=O)[C@@H]2C[C@@H](F)CN2C(=O)C2(C(F)(F)F)CC(F)(F)C2)C2CC2)CCCCCCCN(C)C(=O)[C@H](Cc2cc(Cl)cnc2OC2CC2)N(C)C1=O [Example 105] ({cBuCO(3,3-F2-1-CF3)}-[Pro(trans-4-F)][Gly(cPr)][NMehhhLys(Me)]L[NMeAla(5-Cl-2-cPrO-3-pyridyl)]; lactam 3-C)
[3]
  GI50: 18800 nM
[4]
  GI50: 20 nM
[5]
  GI50: 30 nM

## CC(C)C[C@@H]1NC(=O)[C@@H](N(C)C(=O)[C@@H](NC(=O)[C@@H]2C[C@@H](F)CN2C(=O)C2(C(F)(F)F)CC(F)(F)C2)C2CC2)CCCCCCCN(C)C(=O)[C@H](Cc2cc(Cl)cnc2OC(C)C)N(C)C1=O [Example 120] ({cBuCO(3,3-F2-1-CF3)}-[Pro(trans-4-F)][Gly(cPr)][NMehhhLys(Me)]L[NMe3Pal(2-OiPr,5-Cl)]; lactam 3-C)
[1]; [7]
  IC50: 20 nM
[2]; [8]
  IC50: 210 nM
[3]
  GI50: 9280 nM
[4]
  GI50: 100 nM
[5]
  GI50: 130 nM

## CCOc1ncc(Cl)cc1C[C@H]1C(=O)N(C)CCCCCCC[C@H](N(C)C(=O)[C@@H](NC(=O)[C@@H]2C[C@@H](F)CN2C(=O)C2(C(F)(F)F)CC(F)(F)C2)C2CC2)C(=O)N[C@@H](CC(C)C)C(=O)N1C [Example 225] ({cBuCO(3,3-F2-1-CF3)}-[Pro(trans-4-F)][Gly(cPr)][NMehhhLys(Me)]L[X25]; lactam 3-C)
[1]; [9]
  IC50: 20 nM
[2]
  IC50: 190 nM
[3]
  GI50: 8530 nM
[4]
  GI50: 20 nM
[5]
  GI50: 30 nM

## CC(C)COc1ncc(Cl)cc1C[C@H]1C(=O)N(C)CCCCCCC[C@H](N(C)C(=O)[C@@H](NC(=O)[C@@H]2C[C@@H](F)CN2C(=O)C2(C(F)(F)F)CC(F)(F)C2)C2CC2)C(=O)N[C@@H](CC(C)C)C(=O)N1C [Example 228] ({cBuCO(3,3-F2-1-CF3)}-[Pro(trans-4-F)][Gly(cPr)][NMehhhLys(Me)]L[NMe3Pal(2-OiBu,5-Cl)]; lactam 3-C)
[1]; [9]
  IC50: 20 nM
[2]
  IC50: 250 nM
[3]
  GI50: 9540 nM
[4]
  GI50: 60 nM
[5]
  GI50: 80 nM

## CC(=O)N1CC=C(c2ccc(Cl)cc2C[C@H]2C(=O)NCCCCCCC[C@H](N(C)C(=O)C(NC(=O)[C@@H]3C[C@@H](F)CN3C(=O)C3(C(F)(F)F)CC(F)(F)C3)C3CC3)C(=O)N[C@@H](CC(C)C)C(=O)N2C)C(C)(C)C1 (stereo partly drawn) [Example 277] ({cBuCO(3,3-F2-1-CF3)}-[Pro(trans-4-F)][ξGly(cPr)][NMe(hhhLys)]L[X160]; lactam 3-C)
[6]
  IC50: 600 nM
[1]; [7]
  IC50: 20 nM
[3]
  GI50: 3820 nM
[4]
  GI50: 330 nM
[5]
  GI50: 360 nM

## CC(C)C[C@@H]1NC(=O)[C@@H](N(C)C(=O)[C@H](CCC(=O)O)NC(=O)[C@@H]2C[C@@H](F)CN2C(=O)C2(C(F)(F)F)CC(F)(F)C2)CCCCCCCN(C)C(=O)[C@H](Cc2cc(Cl)ccc2-c2ccc(N3CCOCC3)cc2)N(C)C1=O [Example 418] ({cBuCO(3,3-F2-1-CF3)}-[Pro(trans-4-F)]E[NMehhhLys(Me)]L[NMePhe(2-(4-MorPh),5-Cl)]; lactam 3-C)
[6]
  IC50: 120 nM
[1]; [7]
  IC50: 20 nM
[2]; [8]
  IC50: 5260 nM
[4]
  GI50: 1420 nM
[5]
  GI50: 1150 nM

## CC(C)C[C@@H]1NC(=O)[C@@H](N(C)C(=O)[C@@H](NC(=O)[C@@H]2C[C@@H](F)CN2C(=O)C2(C(F)(F)F)CC(F)(F)C2)C2CC2)CCCCCCCN(C)C(=O)[C@H](Cc2cc(F)cc3cccnc23)N(C)C1=O [Example 423] ({cBuCO(3,3-F2-1-CF3)}-[Pro(trans-4-F)][Gly(cPr)][NMehhhLys(Me)]L[X143]; lactam 3-C)
[6]
  IC50: 720 nM
[1]; [7]
  IC50: 20 nM
[2]; [8]
  IC50: 710 nM
[4]
  GI50: 200 nM
[5]
  GI50: 70 nM

## CC(C)C[C@@H]1NC(=O)[C@@H](N(C)C(=O)[C@@H](NC(=O)[C@@H]2C[C@@H](F)CN2C(=O)C2(C(F)(F)F)CC(F)(F)C2)C2CC2)CCCCCCCN(C)C(=O)[C@H](Cc2cc(Cl)cc3ccccc23)N(C)C1=O [Example 425] ({cBuCO(3,3-F2-1-CF3)}-[Pro(trans-4-F)][Gly(cPr)][NMehhhLys(Me)]L[X156]; lactam 3-C)
[6]
  IC50: 150 nM
[1]; [7]
  IC50: 20 nM
[2]; [8]
  IC50: 210 nM
[4]
  GI50: 160 nM
[5]
  GI50: 240 nM

## CC(C)C[C@@H]1NC(=O)[C@@H](N(C)C(=O)[C@@H](NC(=O)[C@@H]2C[C@@H](F)CN2C(=O)C2(C(F)(F)F)CC(F)(F)C2)C2CC2)CCCCCCCN(C)C(=O)[C@H](Cc2cc(Cl)cs2)N(C)C1=O [Example 426] ({cBuCO(3,3-F2-1-CF3)}-[Pro(trans-4-F)][Gly(cPr)][NMehhhLys(Me)]L[X173]; lactam 3-C)
[6]
  IC50: 110 nM
[1]; [7]
  IC50: 20 nM
[2]; [8]
  IC50: 2060 nM
[4]
  GI50: 90 nM
[5]
  GI50: 150 nM

Source: patent US20240408169A1 (priority 2023, published 2024)
